Data published in patent US5852007A, “Cysteine and serine protease inhibitors containing D-amino acid at the P2 position, methods of making same, and methods of using same” (priority 1997, dated 1998).
Square brackets hold non-standard residues; d marks the D form. Peptide text beside a SMILES is read from it. * marks the point of attachment. Tos = Cc1ccc(S(=O)(=O)*)cc1; dΔPro = O=C(O)[C@H]1C=CCN1

Legend:
Format in all cases: biochemical
cathepsin B = molecular target: T1, cathepsin B (Homo sapiens, UniProt P07858); assay: Inhibition of cathepsin B; conditions: Table III; 1 uM; read-out: Cat B % I @ 1 uM
T1 construct: purchased Calbiochem 219364
Protocol: (§1) Additionally,the order of reagents added to the plate was altered because both enzymes are constitutively active. Following inhibitor addition to the plates, appropriate 2× concentrated stock dilutions of the enzyme preparations were made in assay buffer and 100 μl added to each well. The assay was initiated by addition of 100 μl of 2× concentrated stock dilution of substrate in assay buffer.

[1] = molecular target: T2, Recombinant human calpain I (Homo sapiens, UniProt P07384); assay: Inhibition of calpain I activity; conditions: Table III
T2 construct: made in house
T2 sequence (P07384 1-714): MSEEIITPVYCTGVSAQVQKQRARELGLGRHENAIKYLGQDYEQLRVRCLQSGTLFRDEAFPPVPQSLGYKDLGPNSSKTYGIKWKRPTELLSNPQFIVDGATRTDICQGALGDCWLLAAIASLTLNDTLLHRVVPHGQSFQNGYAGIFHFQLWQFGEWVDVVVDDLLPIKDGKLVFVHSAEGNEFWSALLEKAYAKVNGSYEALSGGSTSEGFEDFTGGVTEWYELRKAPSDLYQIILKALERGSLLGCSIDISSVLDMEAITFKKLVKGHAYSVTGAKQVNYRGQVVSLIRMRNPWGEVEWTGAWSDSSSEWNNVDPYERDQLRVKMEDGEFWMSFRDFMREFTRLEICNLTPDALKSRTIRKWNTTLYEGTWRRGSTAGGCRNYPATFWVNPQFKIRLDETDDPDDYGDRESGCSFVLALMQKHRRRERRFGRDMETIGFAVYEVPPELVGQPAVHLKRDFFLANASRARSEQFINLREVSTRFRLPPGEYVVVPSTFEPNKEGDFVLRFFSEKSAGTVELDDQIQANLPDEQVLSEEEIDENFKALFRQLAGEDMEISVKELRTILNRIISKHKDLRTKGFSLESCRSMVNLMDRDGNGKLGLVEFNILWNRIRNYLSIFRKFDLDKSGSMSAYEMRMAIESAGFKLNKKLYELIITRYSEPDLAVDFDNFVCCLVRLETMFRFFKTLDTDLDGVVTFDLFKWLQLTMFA

α-chymotrypsin = molecular target: T3, α-chymotrypsin (Bos taurus, UniProt P00766); assay: Inhibition of α-chymotrypsin; conditions: Table III; 10 uM; read-out: Chymotrypsin % I @ 10 uM
T3 construct: purchased Sigma Chem. Co. C-3142
Summary of the method: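 Enzyme added to inhibitor first, then reaction started with substrate; no calcium activation needed as enzyme is constitutively active. Fluorogenic substrate hydrolysis read every 5 min up to 30 min ([…]).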

thrombin = molecular target: T4, thrombin (Homo sapiens, UniProt P00734); assay: Inhibition of thrombin; conditions: Table III; 10 uM; read-out: Thrombin % I @ 10 uM
T4 construct: purchased Sigma Chem. Co. T-7009

cathepsin L = molecular target: T5, cathepsin L (Homo sapiens, UniProt P07711); assay: Inhibition of cathepsin L; conditions: Table III; 1 uM; read-out: Cat L % I @ 1 uM
T5 construct: purchased Calbiochem 219402
T5 sequence (P07711 114-288 limits assumed): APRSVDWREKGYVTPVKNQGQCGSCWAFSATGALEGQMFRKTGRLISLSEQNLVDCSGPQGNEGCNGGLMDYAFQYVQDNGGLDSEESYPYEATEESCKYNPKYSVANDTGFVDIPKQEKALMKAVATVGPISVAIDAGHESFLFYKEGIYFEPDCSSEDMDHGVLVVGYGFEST
T5 sequence (P07711 292-333 limits assumed): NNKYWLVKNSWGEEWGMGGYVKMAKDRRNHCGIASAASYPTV
Protocol: as §1

SMILES: Cc1ccc(S(=O)(=O)O[C@H]2C[C@H](C(=O)N[C@H](C=O)Cc3ccccc3)N(S(=O)(=O)c3ccccc3)C2)cc1 [Compound 113]
- inhibition at 1 µM (cathepsin B): 47%
- inhibition at 0.1 µM [1]: 11%
- inhibition at 10 µM (α-chymotrypsin): 0%
- inhibition at 10 µM (thrombin): 0%
- inhibition at 1 µM (cathepsin L): 94%

SMILES: Cc1ccc(S(=O)(=O)N2C[C@@H](N=[N+]=[N-])C[C@@H]2C(=O)N[C@H](C=O)Cc2ccccc2)cc1 [Compound 114]
- inhibition at 1 µM (cathepsin B): 24%
- inhibition at 0.1 µM [1]: 85%
- inhibition at 10 µM (α-chymotrypsin): 9%
- inhibition at 10 µM (thrombin): 3%
- inhibition at 1 µM (cathepsin L): 100%

SMILES: CS(=O)(=O)N[C@H](COCc1ccccc1)C(=O)N[C@H](C=NNC(N)=O)Cc1ccccc1 [Compound 115]
- inhibition at 1 µM (cathepsin B): 47%
- inhibition at 0.1 µM [1]: 0%
- inhibition at 10 µM (α-chymotrypsin): 0%
- inhibition at 10 µM (thrombin): 0%
- inhibition at 1 µM (cathepsin L): 94%

SMILES: C[N+]([O-])=C[C@H](Cc1ccccc1)NC(=O)[C@@H](COCc1ccccc1)NS(C)(=O)=O [Compound 116]
- inhibition at 1 µM (cathepsin B): 96%
- inhibition at 0.1 µM [1]: 4%
- inhibition at 10 µM (α-chymotrypsin): 0%
- inhibition at 10 µM (thrombin): 0%
- inhibition at 1 µM (cathepsin L): 100%

SMILES: CS(=O)(=O)N[C@H](COCc1ccccc1)C(=O)N[C@H](C=[N+]([O-])Cc1ccccc1)Cc1ccccc1 [Compound 117]
- inhibition at 1 µM (cathepsin B): 95%
- inhibition at 0.1 µM [1]: 21%
- inhibition at 10 µM (α-chymotrypsin): 0%
- inhibition at 10 µM (thrombin): 0%
- inhibition at 1 µM (cathepsin L): 100%

SMILES: CS(=O)(=O)N[C@H](COCc1ccccc1)C(=O)N[C@H](C=NO)Cc1ccccc1 [Compound 118]
- inhibition at 1 µM (cathepsin B): 33%
- inhibition at 0.1 µM [1]: 31%
- inhibition at 10 µM (α-chymotrypsin): 8%
- inhibition at 10 µM (thrombin): 0%
- inhibition at 1 µM (cathepsin L): 99%

SMILES: CON=C[C@H](Cc1ccccc1)NC(=O)[C@@H](COCc1ccccc1)NS(C)(=O)=O [Compound 119]
- inhibition at 1 µM (cathepsin B): 68%
- inhibition at 0.1 µM [1]: 19%
- inhibition at 10 µM (α-chymotrypsin): 3%
- inhibition at 10 µM (thrombin): 0%
- inhibition at 1 µM (cathepsin L): 98%

SMILES: Cc1ccc(S(=O)(=O)N2CCC[C@@H]2C(=O)N[C@H](C=O)Cc2ccccc2)cc1 [Compound 120] (Tos-[dP]-Phe-aldehyde)
- inhibition at 1 µM (cathepsin B): 50%
- IC50 [1]: 14 nM
- inhibition at 0.1 µM [1]: 87%
- inhibition at 10 µM (α-chymotrypsin): 12%
- inhibition at 10 µM (thrombin): 0%
- inhibition at 1 µM (cathepsin L): 65%

SMILES: Cc1ccc(S(=O)(=O)O[C@@H]2C[C@H](C(=O)N[C@H](C=O)Cc3ccccc3)N(S(=O)(=O)c3ccc(C)cc3)C2)cc1 [Compound 121]
- inhibition at 1 µM (cathepsin B): 83%
- inhibition at 0.1 µM [1]: 28%
- inhibition at 10 µM (α-chymotrypsin): 18%
- inhibition at 10 µM (thrombin): 3%
- inhibition at 1 µM (cathepsin L): 17%

SMILES: CS(=O)(=O)N[C@H](COCc1ccccc1)C(=O)N[C@H](C=O)CCCCNS(=O)(=O)c1ccccc1 [Compound 122]
- inhibition at 1 µM (cathepsin B): 100%
- IC50 [1]: 3 nM
- inhibition at 0.1 µM [1]: 98%
- inhibition at 10 µM (α-chymotrypsin): 13%
- inhibition at 10 µM (thrombin): 0%
- inhibition at 1 µM (cathepsin L): 100%

SMILES: CCNC(=O)OC[C@H](Cc1ccccc1)NC(=O)[C@H]1CCCN1S(=O)(=O)c1ccc(C)cc1 [Compound 123]
- inhibition at 1 µM (cathepsin B): 16%
- inhibition at 0.1 µM [1]: 7%
- inhibition at 10 µM (α-chymotrypsin): 2%
- inhibition at 10 µM (thrombin): 0%
- inhibition at 1 µM (cathepsin L): 14%

SMILES: CS(=O)(=O)N[C@H](COCc1ccccc1)C(=O)N[C@@H](Cc1ccccc1)C(O)CCc1ccccc1 (stereo partly shown) [Compound 124]
- inhibition at 1 µM (cathepsin B): 27%
- inhibition at 0.1 µM [1]: 20%
- inhibition at 10 µM (α-chymotrypsin): 0%
- inhibition at 10 µM (thrombin): 2%
- inhibition at 1 µM (cathepsin L): 17%

SMILES: CS(=O)(=O)N[C@H](COCc1ccccc1)C(=O)N[C@@H](Cc1ccccc1)C(=O)CCc1ccccc1 [Compound 125]
- inhibition at 1 µM (cathepsin B): 47%
- inhibition at 0.1 µM [1]: 0%
- inhibition at 10 µM (α-chymotrypsin): 0%
- inhibition at 10 µM (thrombin): 4%
- inhibition at 1 µM (cathepsin L): 39%

SMILES: CS(=O)(=O)N[C@H](COCc1ccccc1)C(=O)N[C@H]1CCCCNC1=O [Compound 126]
- inhibition at 1 µM (cathepsin B): 2%
- inhibition at 0.1 µM [1]: 5%
- inhibition at 10 µM (α-chymotrypsin): 6%
- inhibition at 10 µM (thrombin): 0%
- inhibition at 1 µM (cathepsin L): 16%

SMILES: CC(C)(C)OC(=O)N1CCCC[C@H](NC(=O)[C@@H](COCc2ccccc2)N(C(=O)OC(C)(C)C)S(C)(=O)=O)C1=O [Compound 127]
- inhibition at 1 µM (cathepsin B): 36%
- inhibition at 0.1 µM [1]: 6%
- inhibition at 10 µM (α-chymotrypsin): 1%
- inhibition at 10 µM (thrombin): 0%
- inhibition at 1 µM (cathepsin L): 7%

SMILES: CS(=O)(=O)N[C@H](COCc1ccccc1)C(=O)N[C@@H](Cc1ccccc1)C(O)S(=O)(=O)O (stereo partly shown) [Compound 128]
- inhibition at 1 µM (cathepsin B): 99%
- IC50 [1]: 8 nM
- inhibition at 0.1 µM [1]: 89%
- inhibition at 10 µM (α-chymotrypsin): 1%
- inhibition at 10 µM (thrombin): 0%
- inhibition at 1 µM (cathepsin L): 100%

SMILES: Cc1ccc(S(=O)(=O)N2C[C@@H](C#N)C[C@@H]2C(=O)N[C@H](C=O)Cc2ccccc2)cc1 [Compound 129]
- inhibition at 1 µM (cathepsin B): 64%
- inhibition at 0.1 µM [1]: 73%
- inhibition at 10 µM (α-chymotrypsin): 6%
- inhibition at 10 µM (thrombin): 1%
- inhibition at 1 µM (cathepsin L): 100%

SMILES: Cc1ccc(S(=O)(=O)N2CC=C[C@@H]2C(=O)N[C@H](C=O)Cc2ccccc2)cc1 [Compound 130] (Tos-[dΔPro]-Phe-aldehyde)
- inhibition at 1 µM (cathepsin B): 62%
- IC50 [1]: 10 nM
- inhibition at 0.1 µM [1]: 90%
- inhibition at 10 µM (α-chymotrypsin): 0%
- inhibition at 10 µM (thrombin): 9%
- inhibition at 1 µM (cathepsin L): 97%

SMILES: CS(=O)(=O)N[C@H](COCc1ccccc1)C(=O)N[C@@H](Cc1ccccc1)C1OCCS1 (stereo partly shown) [Compound 131]
- inhibition at 1 µM (cathepsin B): 21%
- inhibition at 0.1 µM [1]: 6%
- inhibition at 10 µM (α-chymotrypsin): 0%
- inhibition at 10 µM (thrombin): 11%
- inhibition at 1 µM (cathepsin L): 55%

SMILES: CS(=O)(=O)N[C@H](COCc1ccccc1)C(=O)N[C@@H](Cc1ccccc1)C1N(c2ccccc2)CCN1c1ccccc1 [Compound 132]
- inhibition at 1 µM (cathepsin B): 78%
- inhibition at 0.1 µM [1]: 63%
- inhibition at 10 µM (α-chymotrypsin): 0%
- inhibition at 10 µM (thrombin): 0%
- inhibition at 1 µM (cathepsin L): 100%

SMILES: CN1CCN(C)C1[C@H](Cc1ccccc1)NC(=O)[C@@H](COCc1ccccc1)NS(C)(=O)=O [Compound 133]
- inhibition at 1 µM (cathepsin B): 100%
- IC50 [1]: 13 nM
- inhibition at 0.1 µM [1]: 93%
- inhibition at 10 µM (α-chymotrypsin): 1%
- inhibition at 10 µM (thrombin): 0%
- inhibition at 1 µM (cathepsin L): 100%

SMILES: CCOC(OCC)[C@H](Cc1ccccc1)NC(=O)[C@@H](COCc1ccccc1)NS(C)(=O)=O [Compound 134]
- inhibition at 1 µM (cathepsin B): 19%
- inhibition at 0.1 µM [1]: 0%
- inhibition at 10 µM (α-chymotrypsin): 10%
- inhibition at 10 µM (thrombin): 0%
- inhibition at 1 µM (cathepsin L): 98%

SMILES: CS(=O)(=O)N[C@H](COCc1ccccc1)C(=O)N[C@@H](Cc1ccccc1)C(O)OCc1ccccc1 (stereo partly shown) [Compound 135]
- inhibition at 1 µM (cathepsin B): 98%
- IC50 [1]: 11 nM
- inhibition at 0.1 µM [1]: 91%
- inhibition at 10 µM (α-chymotrypsin): 4%
- inhibition at 10 µM (thrombin): 0%
- inhibition at 1 µM (cathepsin L): 100%
